Inhibition data for one compound are collected here from US20160219881A1, “HERBICIDALLY ACTIVE 2-HALOGEN-4-ALKYNYL-PHENYL-PYRAZOLIDINE-DIONE OR PYRROLIDINE-DIONE DERIVATIVES” (SYNGENTA LIMITED, priority 2013, published 2016).

Common to all, as to format: in vivo
Assay [1] has as its system Triticum aestivum (TRZAW, winter wheat, variety ‘Hereward’). Put plainly: Test 1A glasshouse assay, post-emergence herbicidal activity. To be noted: 312 h, 13 days after application, read-out: Post-Emergence Herbicidal Activity (% Phytotoxicity) TRZAW. The protocol:
(§1) Seeds of a variety of test species are sown in standard soil (usually sandy soil) in pots. After cultivation for one day (pre-emergence) or after 8 days cultivation (post-emergence) under controlled conditions in a glasshouse (at 24/16° C., day/night; 14 hours light; 65% humidity), the plants are sprayed with an aqueous spray solution derived from the formulation of the technical active ingredient (compound) in acetone/water (50:50) solution containing 0.5% Tween 20 (polyoxyethylene sorbitan monolaurate, CAS RN 9005-64-5). The test plants are then grown under controlled conditions in a glasshouse (at 24/16° C., day/night; 14 hours light; 65% humidity) and watered twice daily. 13 days after application of the test compounds, for pre- and post-emergence, the test is evaluated visually for percentage phytotoxicity to each plant (where 100%=total damage to plant; 0%=no damage to plant).
(§2) Lolium perenne (LOLPE), Triticum aestivum (TRZAW, winter wheat, variety ‘Hereward’), Alopecurus myosuroides (ALOMY), Echinochloa crus-galli (ECHCG), and Avena fatua (AVEFA). All these are grassy monocotyledonous weeds and/or (for wheat) grassy crops.

Assay [2] deals with Lolium perenne (LOLPE). The description is as above. To be noted: 312 h, 13 days after application, read-out: Post-Emergence Herbicidal Activity (% Phytotoxicity) LOLPE. The protocol:
as §1, §2

The subject of the next assay is Avena fatua (AVEFA). The description is as above. To be noted: 312 h, 13 days after application, read-out: Post-Emergence Herbicidal Activity (% Phytotoxicity) AVEFA. The protocol: as §1, §2
Assay [3] concerns Cloquintocet-mexyl seed-treated Winter Wheat (variety ‘Hereward’). Nature of the assay: Test 1B glasshouse assay, post-emergence phytotoxicity on winter wheat whose seed has been treated with cloquintocet-mexyl. To be noted: Triticum aestivum, 312 h, seed treated with cloquintocet-mexyl 0.5 g/kg dry seed, 13 days after application, read-out: Post-Emergence Herbicidal Activity (% Phytotoxicity) Cloquintocet-mexyl seed-treated Winter Wheat (variety ‘Hereward’). As for the experimental part: Seeds of the Winter Wheat variety ‘Hereward’ were seed treated with a wettable powder formulation of the cereal herbicide safener, cloquintocet-mexyl, at a rate of 0.5 grams per kilogram of dry seed, prior to the initiation of glasshouse testing. Three seeds were sown per 1.5 inch plastic pot into a standard soil (usually sandy soil) at a depth of 1 cm, prior to application of the test compounds and were watered and grown under controlled conditions in a glasshouse (at 24/16° C., day/night; 14 hours light; 65% humidity). After 8 days cultivation under these controlled conditions, the plants were sprayed post-emergence with an aqueous spray solution derived from the formulation of the technical active ingredient (compound) in acetone/water (50:50) solution containing 0.5% Tween 20 (polyoxyethylene sorbitan monolaurate, CAS RN 9005-64-5). The test plants were then grown on in a glasshouse under controlled conditions (at 24/16° C., day/night; 14 hours light; 65% humidity) and watered twice daily. 13 days after application of the test compounds, the test was evaluated visually for percentage phytotoxicity to each plant (where 100%=total damage to plant; 0%=no damage to plant).

Assay [4] has as its system Triticum aestivum (TRZAW, winter wheat). Nature of the assay: Test 1A glasshouse assay, pre-emergence herbicidal activity. To be noted: 312 h, 13 days after application, read-out: Pre-Emergence Herbicidal Activity (% Phytotoxicity) TRZAW. The protocol:
as §1
(§3) Lolium perenne (LOLPE), Triticum aestivum (TRZAW, winter wheat), Alopecurus myosuroides (ALOMY), Echinochloa crus-galli (ECHCG), and Avena fatua (AVEFA). All these are grassy monocotyledonous weeds and/or (for wheat) grassy crops.

The test system of assay [5] is Lolium perenne (LOLPE). The description is as above. To be noted: 312 h, 13 days after application, read-out: Pre-Emergence Herbicidal Activity (% Phytotoxicity) LOLPE. The protocol: as §1, §3

Structures are written as SMILES.

Take `CC#Cc1cc(C)c(C2C(=O)C(Cc3ccccn3)N(C)C2=O)c(C)c1` (stereo not shown) [Compound A50, 3-(2,6-dimethyl-4-prop-1-ynyl-phenyl)-1-methyl-5-(2-pyridylmethyl)pyrrolidine-2,4-dione]: the inhibition at 15.625 g/ha in assay [1] (15.625 g/ha) was determined as 30%; with Lolium perenne (LOLPE) [2] (15.625 g/ha) it was 40%; with Avena fatua (AVEFA) (15.625 g/ha) it was 50%; in assay [3] (15.625 g/ha), 0%. In addition, the inhibition at 62.5 g/ha was determined as 70% in assay [1] (62.5 g/ha); 70% with Lolium perenne (LOLPE) [2] (62.5 g/ha); 70% with Avena fatua (AVEFA) (62.5 g/ha); 40% in assay [3] (62.5 g/ha); 70% in assay [4] (62.5 g/ha); 70% in the assay on Lolium perenne (LOLPE) [5] (62.5 g/ha). In addition, the inhibition at 250 g/ha in assay [1] (250 g/ha) amounted to 80%; in the assay with Lolium perenne (LOLPE) [2] (250 g/ha), 100%; in the assay with Avena fatua (AVEFA) (250 g/ha), 100%; in assay [3] (250 g/ha) it was 60%; in assay [4] (250 g/ha) it was 90%; in the assay on Lolium perenne (LOLPE) [5] (250 g/ha), 100%.
